Experimental data: PMC11956013, “Structure–Activity Relationships and Evaluation of 2-(Heteroaryl-cycloalkyl)-1H-indoles as Tauopathy Positron Emission Tomography Radiotracers” (Journal of Medicinal Chemistry, 2025)
Like-named read-outs stand apart in the source and are kept apart here. Where no end group is shown, it is not given here.

What was measured:
[1] = test system: NMDA; experiment: Eurofins panel: NMDA (antagonist radioligand); assay type: binding
[2] = test system: TNF-alpha (h)
[3] = molecular target: 5-HT3 (h) (Homo sapiens, UniProt P46098); conditions: reference compound; 5-HT3 (h)
Chain of 5-HT3 (h) (P46098 24-478): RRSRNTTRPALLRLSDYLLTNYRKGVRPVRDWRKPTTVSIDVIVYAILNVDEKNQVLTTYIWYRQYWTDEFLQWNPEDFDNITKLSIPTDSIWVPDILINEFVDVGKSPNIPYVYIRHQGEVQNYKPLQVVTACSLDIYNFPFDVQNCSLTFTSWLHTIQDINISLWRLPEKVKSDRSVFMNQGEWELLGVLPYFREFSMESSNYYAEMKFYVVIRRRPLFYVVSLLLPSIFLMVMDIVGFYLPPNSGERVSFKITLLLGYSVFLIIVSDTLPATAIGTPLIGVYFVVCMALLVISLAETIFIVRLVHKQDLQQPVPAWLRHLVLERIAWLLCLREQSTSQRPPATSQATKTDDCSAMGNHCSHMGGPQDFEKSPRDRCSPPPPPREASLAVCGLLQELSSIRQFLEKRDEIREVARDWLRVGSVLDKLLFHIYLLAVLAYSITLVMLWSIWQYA

[4] = male rhesus macaque
[5] = Log D7.4, octanol/aqueous buffer shake-flask method; conditions: pH 7.4
[6] = Dynamic PET/CT brain imaging in male rhesus macaques; conditions: male rhesus macaque
[7] = molecular target: T1, human 5-HT2B (Homo sapiens, UniProt P41595); experiment: Eurofins CNS SafetyScreen panel: 5-HT2B (vs ± DOI); assay type: binding; conditions: reference compound, 5-HT2B (h)
T1 construct: purchased Eurofins (contract screening, CNS SafetyScreen panel)
T1 sequence (P41595 whole entry): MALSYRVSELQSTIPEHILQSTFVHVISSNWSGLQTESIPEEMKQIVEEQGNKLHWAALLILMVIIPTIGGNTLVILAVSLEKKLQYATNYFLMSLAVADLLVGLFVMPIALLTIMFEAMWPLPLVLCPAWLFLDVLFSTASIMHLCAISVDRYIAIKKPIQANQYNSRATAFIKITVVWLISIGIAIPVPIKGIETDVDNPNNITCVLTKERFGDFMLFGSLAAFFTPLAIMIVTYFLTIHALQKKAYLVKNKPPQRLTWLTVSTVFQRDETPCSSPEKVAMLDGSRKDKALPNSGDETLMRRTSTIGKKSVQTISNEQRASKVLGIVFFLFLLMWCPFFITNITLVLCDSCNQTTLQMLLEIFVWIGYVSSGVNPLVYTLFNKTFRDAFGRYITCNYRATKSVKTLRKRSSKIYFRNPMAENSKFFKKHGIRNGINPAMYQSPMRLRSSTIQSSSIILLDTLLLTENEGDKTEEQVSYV

[8] = molecular target: T2, 5-HT2A (h) (Homo sapiens, UniProt P28223); experiment: Eurofins panel: 5-HT2A (h) (agonist radioligand); assay type: binding; conditions: reference compound; 5-HT2A (h)
T2 construct: purchased Eurofins (contract screening, CNS SafetyScreen panel)
T2 sequence (P28223 whole entry): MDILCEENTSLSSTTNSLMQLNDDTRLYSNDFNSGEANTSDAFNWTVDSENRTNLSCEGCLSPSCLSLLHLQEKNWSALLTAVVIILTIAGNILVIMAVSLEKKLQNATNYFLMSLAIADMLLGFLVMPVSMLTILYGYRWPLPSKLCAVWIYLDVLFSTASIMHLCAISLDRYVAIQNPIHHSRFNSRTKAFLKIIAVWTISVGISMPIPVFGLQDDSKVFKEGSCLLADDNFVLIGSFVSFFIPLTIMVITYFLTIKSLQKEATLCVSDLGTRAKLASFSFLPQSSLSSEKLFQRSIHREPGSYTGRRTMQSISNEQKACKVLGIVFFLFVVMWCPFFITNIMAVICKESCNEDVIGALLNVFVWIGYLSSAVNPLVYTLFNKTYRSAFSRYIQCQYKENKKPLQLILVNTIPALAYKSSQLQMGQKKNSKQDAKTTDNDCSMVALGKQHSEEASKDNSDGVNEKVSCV

[9] = molecular target: T3, 5-HT2C (h) (Homo sapiens, UniProt P28335); experiment: Eurofins panel: 5-HT2C (h) (agonist radioligand); assay type: binding; conditions: reference compound, 5-HT2C (h)
T3 construct: purchased Eurofins (contract screening, CNS SafetyScreen panel)
T3 sequence (P28335 33-458): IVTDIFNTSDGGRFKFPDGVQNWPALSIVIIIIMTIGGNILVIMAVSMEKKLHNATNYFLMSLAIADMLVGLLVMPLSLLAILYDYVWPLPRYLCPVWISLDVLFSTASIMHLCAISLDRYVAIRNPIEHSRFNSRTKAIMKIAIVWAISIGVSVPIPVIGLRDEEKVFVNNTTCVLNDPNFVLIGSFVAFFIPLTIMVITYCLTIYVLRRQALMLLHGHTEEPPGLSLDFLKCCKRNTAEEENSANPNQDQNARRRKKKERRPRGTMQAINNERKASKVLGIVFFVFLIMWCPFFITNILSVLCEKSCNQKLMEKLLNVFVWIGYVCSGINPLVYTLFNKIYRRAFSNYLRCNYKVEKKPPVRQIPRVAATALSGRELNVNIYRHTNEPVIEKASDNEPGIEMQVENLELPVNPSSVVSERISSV

[10] = molecular target: T4, aggregated tau (mixed 3R/4R-tau) in AD brain tissue homogenates (Homo sapiens, UniProt P10636); experiment: In vitro competition (Ki) assay versus [^3H]7, AD brain tissue homogenate; assay type: binding; conditions: radioligand [^3H]7 ∼1 nM
Target sequence in this assay (P10636 623-695 limits assumed): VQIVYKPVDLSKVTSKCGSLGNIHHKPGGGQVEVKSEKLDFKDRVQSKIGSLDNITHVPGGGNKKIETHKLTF

[11] = molecular target: T5, aggregated tau (4R-tau) in PSP brain tissue homogenates (Homo sapiens, UniProt P10636); experiment: In vitro competition (Ki) assay versus [^3H]7, PSP brain tissue homogenate; assay type: binding; conditions: radioligand [^3H]7 ∼1 nM
T5 construct: from tissue
T5 sequence (P10636 1-441 isoform P10636-8): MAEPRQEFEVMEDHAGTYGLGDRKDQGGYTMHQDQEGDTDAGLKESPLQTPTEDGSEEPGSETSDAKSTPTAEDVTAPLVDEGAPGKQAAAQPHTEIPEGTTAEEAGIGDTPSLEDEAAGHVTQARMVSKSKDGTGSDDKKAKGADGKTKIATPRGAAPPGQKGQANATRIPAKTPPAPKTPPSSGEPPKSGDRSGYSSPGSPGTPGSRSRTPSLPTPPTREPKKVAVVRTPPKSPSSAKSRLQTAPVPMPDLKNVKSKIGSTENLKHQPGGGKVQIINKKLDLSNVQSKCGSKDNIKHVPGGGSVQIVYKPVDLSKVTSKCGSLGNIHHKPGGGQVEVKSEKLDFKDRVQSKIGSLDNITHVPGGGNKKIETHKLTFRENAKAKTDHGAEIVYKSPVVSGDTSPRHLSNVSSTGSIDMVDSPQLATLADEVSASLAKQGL

[12] = molecular target: T4, aggregated tau (mixed 3R/4R-tau) in AD brain tissue homogenates; experiment: In vitro competition (Ki) assay versus [^3H]8, AD brain tissue homogenate; assay type: binding; conditions: radioligand [^3H]8 ∼1 nM
Target sequence in this assay (P10636 623-708 limits assumed): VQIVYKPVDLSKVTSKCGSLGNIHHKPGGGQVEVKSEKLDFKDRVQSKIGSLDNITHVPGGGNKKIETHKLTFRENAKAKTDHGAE

[13] = molecular target: T5, aggregated tau (4R-tau) in PSP brain tissue homogenates; experiment: In vitro competition (Ki) assay versus [^3H]8, PSP brain tissue homogenate; assay type: binding; conditions: radioligand [^3H]8 ∼1 nM
[14] = molecular target: T6, aggregated tau (4R-tau) in CBD brain tissue homogenates (Homo sapiens, UniProt P10636); conditions: read-out: Ki versus [^3H]7, CBD tissue; CBD brain tissue homogenate; radioligand [^3H]7 ∼1 nM
T6 sequence (P10636 1-441 isoform P10636-8): as the sequence (P10636 1-441 isoform P10636-8) above

[15] = molecular target: T4, aggregated tau (mixed 3R/4R-tau) in AD brain tissue homogenates; set-up: method as in earlier work; conditions: AD brain tissue homogenate; radioligand [^3H]3; read-out: Ki versus [^3H]3, AD tissue; cited from earlier work
Target sequence in this assay (P10636 623-695 limits assumed): as the sequence (P10636 623-695 limits assumed) above

[16] = molecular target: T5, aggregated tau (4R-tau) in PSP brain tissue homogenates; set-up: method as in earlier work; conditions: PSP brain tissue homogenate; radioligand [^3H]3; read-out: Ki versus [^3H]3, PSP tissue; cited from earlier work
[17] = molecular target: T6, aggregated tau (4R-tau) in CBD brain tissue homogenates; experiment: biochemical
[18] = molecular target: T6, aggregated tau (4R-tau) in CBD brain tissue homogenates; set-up: from tissue; host or cells: post-mortem human CBD brain, middle frontal gyrus homogenate; method as in earlier work; conditions: CBD brain tissue homogenate; radioligand [^3H]3; read-out: Ki versus [^3H]3, CBD tissue; cited from earlier work
[19] = molecular target: alpha2A (h) (Homo sapiens, UniProt P08913); conditions: reference compound; alpha2A (h)
Chain of alpha2A (h) (P08913 whole entry): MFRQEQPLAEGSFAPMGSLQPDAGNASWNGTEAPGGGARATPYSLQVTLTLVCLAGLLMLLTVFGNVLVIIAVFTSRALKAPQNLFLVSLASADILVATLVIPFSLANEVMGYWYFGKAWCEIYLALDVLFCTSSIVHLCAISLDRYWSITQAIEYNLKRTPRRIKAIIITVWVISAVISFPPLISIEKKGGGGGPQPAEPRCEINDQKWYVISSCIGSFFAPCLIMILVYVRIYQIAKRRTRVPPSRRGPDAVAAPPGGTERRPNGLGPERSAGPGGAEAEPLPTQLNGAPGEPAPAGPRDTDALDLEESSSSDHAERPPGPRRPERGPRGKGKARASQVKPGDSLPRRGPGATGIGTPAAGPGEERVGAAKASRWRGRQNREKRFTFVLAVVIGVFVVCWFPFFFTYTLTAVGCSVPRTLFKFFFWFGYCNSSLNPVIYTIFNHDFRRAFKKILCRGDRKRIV

[20] = molecular target: alpha2C (h) (Homo sapiens, UniProt P18825); conditions: reference compound; alpha2C (h)
Chain of alpha2C (h) (P18825 whole entry): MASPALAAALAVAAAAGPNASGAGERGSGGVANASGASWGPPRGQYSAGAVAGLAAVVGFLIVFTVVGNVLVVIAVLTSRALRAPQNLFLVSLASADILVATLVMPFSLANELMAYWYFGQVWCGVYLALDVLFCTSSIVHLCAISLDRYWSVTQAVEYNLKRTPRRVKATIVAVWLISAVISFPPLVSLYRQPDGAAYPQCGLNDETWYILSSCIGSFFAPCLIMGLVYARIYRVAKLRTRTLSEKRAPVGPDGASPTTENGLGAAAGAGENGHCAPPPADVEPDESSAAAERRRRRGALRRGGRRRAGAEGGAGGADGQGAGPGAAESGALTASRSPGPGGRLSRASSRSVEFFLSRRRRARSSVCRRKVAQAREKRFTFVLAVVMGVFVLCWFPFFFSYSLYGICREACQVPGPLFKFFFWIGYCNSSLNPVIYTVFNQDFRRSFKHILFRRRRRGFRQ

[21] = molecular target: beta1 (h) (Homo sapiens, UniProt P08588); conditions: reference compound; beta1 (h)
Chain of beta1 (h) (P08588 whole entry): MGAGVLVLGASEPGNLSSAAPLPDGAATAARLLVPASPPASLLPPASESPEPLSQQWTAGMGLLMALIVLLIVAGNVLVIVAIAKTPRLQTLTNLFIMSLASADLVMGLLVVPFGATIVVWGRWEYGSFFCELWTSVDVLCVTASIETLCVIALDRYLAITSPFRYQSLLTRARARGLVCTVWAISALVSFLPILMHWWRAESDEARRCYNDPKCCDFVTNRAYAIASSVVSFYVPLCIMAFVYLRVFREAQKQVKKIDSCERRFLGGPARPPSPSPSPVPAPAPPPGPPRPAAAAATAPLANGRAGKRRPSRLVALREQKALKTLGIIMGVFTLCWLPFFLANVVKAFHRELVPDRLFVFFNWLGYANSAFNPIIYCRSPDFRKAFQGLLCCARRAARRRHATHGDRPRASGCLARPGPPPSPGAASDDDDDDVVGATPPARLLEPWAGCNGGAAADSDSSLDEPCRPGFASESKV

[22] = molecular target: dopamine transporter (h) (Homo sapiens, UniProt Q01959); experiment: dopamine transporter (h) (antagonist radioligand), Eurofins assay 52; conditions: Specific binding; reference compound
Chain of dopamine transporter (h) (Q01959 whole entry): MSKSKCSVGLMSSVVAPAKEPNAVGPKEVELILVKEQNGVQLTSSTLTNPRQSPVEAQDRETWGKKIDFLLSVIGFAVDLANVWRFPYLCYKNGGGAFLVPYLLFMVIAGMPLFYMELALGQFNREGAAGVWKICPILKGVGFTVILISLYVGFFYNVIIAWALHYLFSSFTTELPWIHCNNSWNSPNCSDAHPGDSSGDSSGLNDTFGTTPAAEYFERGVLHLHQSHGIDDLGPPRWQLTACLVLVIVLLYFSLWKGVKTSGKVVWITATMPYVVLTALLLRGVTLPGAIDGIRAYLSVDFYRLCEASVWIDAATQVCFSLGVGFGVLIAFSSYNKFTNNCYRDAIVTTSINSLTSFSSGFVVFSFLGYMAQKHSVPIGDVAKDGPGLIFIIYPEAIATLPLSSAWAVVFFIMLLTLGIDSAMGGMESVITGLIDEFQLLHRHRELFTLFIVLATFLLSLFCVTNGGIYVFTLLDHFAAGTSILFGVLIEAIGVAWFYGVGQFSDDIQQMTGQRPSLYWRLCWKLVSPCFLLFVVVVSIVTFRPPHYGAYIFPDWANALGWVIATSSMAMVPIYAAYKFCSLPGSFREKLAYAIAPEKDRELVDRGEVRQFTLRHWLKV

[23] = molecular target: B2 (h) (Homo sapiens, UniProt P30411); conditions: reference compound; B2 (h)
Chain of B2 (h) (P30411 whole entry): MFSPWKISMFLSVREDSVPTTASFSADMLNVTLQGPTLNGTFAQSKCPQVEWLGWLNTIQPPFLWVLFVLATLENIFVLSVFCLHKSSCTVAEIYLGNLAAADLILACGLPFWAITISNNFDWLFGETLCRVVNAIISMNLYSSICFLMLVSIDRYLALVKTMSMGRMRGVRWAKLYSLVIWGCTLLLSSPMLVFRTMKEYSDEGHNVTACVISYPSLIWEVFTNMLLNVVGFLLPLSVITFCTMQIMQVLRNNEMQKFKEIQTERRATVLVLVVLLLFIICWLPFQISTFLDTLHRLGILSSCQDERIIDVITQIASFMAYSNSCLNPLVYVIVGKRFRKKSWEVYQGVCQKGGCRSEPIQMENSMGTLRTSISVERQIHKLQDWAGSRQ

[24] = test system: Ca2+ channel (N); assay type: binding; conditions: read-out: Concurrent IC50, Specific binding
[25] = read-out: Concurrent IC50 (Specific binding), reference compound
[26] = read-out: Concurrent Ki (Specific binding), reference compound
[27] = read-out: Concurrent IC50, Specific binding
[28] = read-out: Concurrent Ki, Specific binding

O=C(O)[C@@H]1C[C@H](CP(=O)(O)O)CCN1 [CGS 19755]
IC50 [1, 25]: 329 nM
Ki [1, 26]: 270 nM

KGDRLS [TNF-alpha]
IC50 [2, 25]: 0.0808 nM
Ki [2, 26]: 0.0269 nM

CN1[C@@H]2CC[C@H]1C[C@@H](OC(=O)c1cc(Cl)cc(Cl)c1)C2 [MDL 72222]
nH, Specific binding [3]: 1.115

[18F]c1nc(N2CCOCC2)ccc1-c1cc2ccccc2[nH]1 [[^18F]75, 4-(6-[^18F]Fluoro-5-(1H-indol-2-yl)pyridin-2-yl)morpholine]
intact radiotracer remaining in venous plasma after 10 min ([4]; 10 min): ~35%
intact radiotracer remaining in venous plasma after 30 min ([4]; 30 min): ~20%
intact radiotracer remaining in venous plasma after 90 min ([4]; 90 min): ~10%
nature of radiometabolites formed ([4]; venous metabolite analysis): only more polar radiometabolites were formed
logD [5]: 1.96 ± 0.03
stability against [^18F]defluorination (skull uptake) ([6]; PET images): stable against [^18F]defluorination
average brain radioactivity clearance rate ([6]; all regions): ~0.04 SUV/min
SUVmax, cerebellum ([6]; i.v. bolus, PET): 5.0
SUVmax, cortex ([6]; i.v. bolus, PET): 4.7
SUVmax, whole brain ([6]; i.v. bolus, PET): 4.2
peak standardized uptake value (SUVmax) values, brain regions ([6]; range over cerebellum, cortex, whole brain): 4–5

COc1cc(CC(C)N)c(OC)cc1I (racemic) [(±)DOI]
IC50 [7, 27]: 3.51 nM
Ki [7, 28]: 1.75 nM
nH, Specific binding [7]: 0.8475
nH, Specific binding [8]: 0.9157
IC50 [9, 27]: 0.668 nM
Ki [9, 28]: 0.602 nM
nH, Specific binding [9]: 0.9843

OC1CCN(c2ncc(-c3cc4ccc(F)cc4[nH]3)cn2)CC1 [Compound 7]
Ki [10]: 12 ± 7.3 nM
Ki [11]: 24 nM
Ki [12]: 6.7 nM
Ki [13]: 15 nM
Ki [14]: 22 ± 12 nM
Ki [15]: 18 nM
Ki [16]: 20 nM
Ki [17]: 14 nM
Ki [18]: 22 nM

COC(=O)[C@@H]1[C@H]2C[C@H]3c4[nH]c5ccccc5c4CCN3C[C@@H]2CC[C@@H]1O [yohimbine]
nH, Specific binding [19]: 0.928
nH, Specific binding [20]: 1.207

CC(C)NCC(O)COc1ccc(CC(N)=O)cc1 (centres unmarked) [atenolol]
nH, Specific binding [21]: 1.187

c1ccc2sc(C3(N4CCCCC4)CCCCC3)cc2c1 [BTCP]
nH [22]: 0.9093

N=C(N)NCCC[C@@H](N)C(=O)N[C@@H](CCCNC(=N)N)C(=O)N1CCC[C@H]1C(=O)N1C[C@H](O)C[C@H]1C(=O)NCC(=O)N[C@@H](Cc1ccccc1)C(=O)N[C@@H](CO)C(=O)N[C@H](Cc1ccccc1)C(=O)N[C@@H](Cc1ccccc1)C(=O)N[C@@H](CCCNC(=N)N)C(=O)O [NPC 567]
nH, Specific binding [23]: 0.9653

omega -conotoxin GVIA
IC50 [24]: 0.0012 nM
